Columns and labels:
MS IgG = assay: Indirect ELISA of MS IgG binding to receptor peptides; parameters: species or system human; conditions: 200 μg immunoglobulins
Protocol: FIG. 6: Dose-response curves of the interaction between MS sera and DDSK peptide. (A) Sera of Multiple Sclerosis patients and Control (control group is defined in material and method below) (200 μg) were incubated with different concentrations (50-100-250 μM) of peptide DDSK. For the detection, inventors used a secondary antibody anti human IgG conjugated with HRP and (3,3′,5,5′-Tetramethylbenzidine) TMB solution that was added for each well and incubated for 15-30 min. Equal volume of stopping solution (2 M H2SO4) was added to the plate and absorbance (optical density) of plate was read at 450 nm. The statistical analysis derived from 9 experiments. Values are mean±SEM. *P<0.05 MS vs CTRL (B) Linear representation of dose-response curve Values are mean±SEM. *P<0.05 MS vs CTRL.
FIGS. 7A, 7B, 7C and 7D: MS sera recognize specially receptor's peptides. […] Equal volume of stopping solution (2 M H2SO4) was added to the plate and absorbance (optical density) of plate was read at 450 nm. […]
A. Sera of Multiple Sclerosis patients and Control (200 μg) were incubated in absence (uncoated) or presence of 100 μM of DDSK peptide. […] Equal volume of stopping solution (2 M H2SO4) was added to the plate and absorbance (optical density) of plate was read at 450 nm. […]
Diluted peptide (20 μg/ml) was coated to the wells of a PVC microtiter plate and incubated at 4° C. overnight. […] For the detection, we used a secondary antibody anti human (recognized constant region of the patient antibody conjugated with HRP and (3,3′,5,5′-Tetramethylbenzidine) TMB solution that was added for each well and incubated for 15-30 min. Equal volume of stopping solution (2 M H2SO4) was added to the plate and absorbance (optical density) of plate was read at 450 nm.
To evaluate the peptide concentration to use for ELISA assay we performed a dose-response curve. […] (named DDSK in the figures) and the absorbance (optical density) of plate was read at 450 nm. […]

[1] = tested on: 5HT2a receptor downstream signaling in MO3-13 cells; assay: Western blotting of proteins downstream of the 5HT2a receptor in MO3-13 cells; type: cell-based, human
Protocol: The same membrane was also incubated with α-Tubulin antibody to show the protein loading.
Western blotting analysis of DUOX1/2 expression levels in MO3-13 cells harvested for 18 h in medium containing 0.2% FBS, preincubated with DDSK (50 uM) for 30 min in serum-free medium and then stimulated for 30 min with IgG (200 μg/ml) purified from serum of Control (IgCtr) or MS (IgMS) patients.
(§1) Western blotting analysis of P-ERK1/2 expression levels in MO3-13 cells harvested for 18 h in medium containing 0.2% FBS, preincubated with DDSK (50 uM) for 30 min in serum-free medium and then stimulated for 30 min with IgG (200 μg/ml) purified from serum of Control (Ig Ctr) or MS (IgMS) patients.
Western blotting analysis of NOX3 expression levels in MO3-13 cells harvested for 18 h in medium containing 0.2% FBS, preincubated with DDSK (50 uM) for 30 min in serum-free medium and then stimulated for30 min with IgG (200 μg/ml) purified from serum of Control (IgCtr) or MS (IgMS) patients.
as §1, with “of H-Ras” for “of P-ERK1/2”, “stimulated for30” for “stimulated for 30”, “patients. The same membrane was incubated with α-Tubulin antibody to show the protein loading.” for “patients.”
Total cells lysates were obtained in RIPA buffer (50 mM Tris-HCl, pH 7.5, NaCl 150 mM, 1% NP40, 0.5% deoxycholate, 0.1% SDS) containing 2.5 mM Na-pyrophosphate, 1 mM β-glycerophosphate, 1 mM NaVO4, 1 mM NaF, 0.5 mM PMSF, and a cocktail of protease inhibitors (Roche, USA). The cells were kept for 15 min at 4° C. and disrupted by repeated aspiration through a 21-gauge needle. Cell lysates were centrifuged for 10 min at 13000 rpm and the pellets were discarded. Fifty micrograms of total proteins were subjected to SDS-PAGE under reducing conditions. […] Membranes were placed in 5% non-fat milk in […], 0.5% Tween 20 (TBST) at 4° C. for 2 h to block the nonspecific binding sites. Filters were incubated with specific antibodies before being washed three times in TBST and then incubated with a peroxidase-conjugated secondary antibody (Santa Cruz). After washing with TBST, peroxidase activity was detected with the ECL system (GE-Healthcare, UK).
The filters were also probed with an anti α-tubulin antibody (Sigma, USA). […] Densitometric values were normalized to α-tubulin.

[2] = 50 uM peptide 30 min, then IgMS 200 μg/ml 30 min

Sequence: DDSKVFKEGS
- binding of MS IgG to peptide respect to scrambled (MS IgG; 100 μM peptide): bind specifically
- peptide concentration at which MS IgG bind the peptide (MS IgG; dose-response 50-100-250 μM peptide, absorbance 450 nm): higher than 50 μM
- effect of peptide preincubation on IgMS-increased DUOX1/2 protein levels [1, 2]: reverted the effect
- effect of peptide preincubation on IgMS-increased HaRas protein levels [1, 2]: reverted the effect
- effect of peptide preincubation on IgMS-increased NOX3 protein levels [1, 2]: reverted the effect
- effect of peptide preincubation on IgMS-increased P-ERK1/2 protein levels [1, 2]: reverted the effect
- effect of peptide on protein levels (DUOX1/2, P-ERK1/2, NOX3, HaRas) in cells incubated with IgG from control subjects ([1]; 50 uM peptide, IgG control 200 μg/ml): did not significantly modify
